In paper PMC6085350, “Small molecule inhibitors of RAS-effector protein interactions derived using an intracellular antibody fragment” (Nature Communications, 2018):

What was measured:
KRAS^G12V-GppNHp = target: T1, KRAS^G12V-GppNHp (Homo sapiens, UniProt P01116, G12V); test: SPR binding to KRAS G12V-GppNHp; conditions: 100 μM, run in triplicate
T1 construct: made in house; host or cells: E. coli (pGEX-2T; strain named only for the HRAS plasmids)
Description: A BIAcore T100 (GE Healthcare) was used to screen the fragment library for RAS binders. A polyclonal goat anti-GST antibody (GE Healthcare) was immobilized on a CM5 sensor chip (GE Healthcare) by the amine coupling method. To immobilize the antibody on CM5 chip, the chip was first activated by injecting 100 µl mixture of 0.2 M EDC (N-ethyl-N-(dimethylaminopropyl) carbodiimide hydrochloride) and 0.05 M NHS (N-hydroxysuccinimide) at 10 µl/min flow rate. Furthermore, 100 µg/ml anti-GST antibody in 10 mM sodium acetate, pH 5.0 was injected at 5 µl/min for 900 s and immobilized until 20,000 ~ 25,000 RU. After immobilization the chip was immediately inactivated by injecting 1 M ethanolamine, pH 8.5 at 10 µl/min for 600 s. The chip was kept running in the HBS buffer (GE Healthcare) comprising 10 mM HEPES, pH 8.0, 150 mM NaCl. Of all, 5 µg/ml recombinant GST, GST-HRAS^G12V-GTPγS or GST-HRAS^G12V-GDP proteins were injected into flow cell Fc4, Fc2 and Fc3, respectively for trapping through the immobilized anti-GST antibody. The GST-HRAS^G12V-GTPγS, GST-KRAS^G12V-GppNHpp, or GST-HRAS^G12V-GDP proteins were injected at 5 µl/min for 900 s and usually reached approximately 2000–2500 RU. The GST was injected at same flow rate until about 1200–1350 RU which is 0.54 times less than the GST-HRAS^G12V-GTPγS or GST-HRAS-GDP capture amounts, taking into consideration relative molecular weights (GST, 26KDa, GST-RAS, 48KDa, respectively). Before fragment library screening, the running buffer was replaced by 20 mM Tris, pH 8, 150 mM NaCl, 5 mM MgCl2, 5% DMSO. DMSO solvent correction curves were generated by injecting the running buffers with serial concentrations of DMSO ranging from 4.5 to 6%. […] The individual compounds were injected at 30 µl for 60 s at 30 µl/min flow rate over flow cells Fc1, Fc2, Fc3 and Fc4. The captured GST and GST-RAS were removed from the chip by rinsing with 40 µl 10 mM glycine-HCl, pH 2.1 at 20 µl/min flow rate after every 48 compounds sequential injection. The chip was regenerated by injecting new GST and GST-RAS proteins as described above.

[1] = test system: ERK1/2 phosphorylation in DLD-1 cells (KRAS^G13D); test: Biomarker phosphorylation assay, pERK, DLD-1; type: cell-based, human; conditions: DLD-1, 2-20 μM, 3 h, EGF 10 min
Description: (§1) Fig. 5 Abd-7 results on RAS-dependent signalling pathways and cell viability. a, b DLD-1 (a) or H358 (b) cells were serum-starved for 24 h, incubated in mono-layer with Abd-7 in a range from 2, 5, 10 and 20 μM for 3 h and stimulated with EGF 10 min. Proteins were extracted and separated by SDS-PAGE and transferred to membranes for Western analysis with anti-pAKT, anti-pERK, anti-pan AKT and anti-pan ERK. Anti-cyclophilin B antibody was the loading control. Signal was developed using standard ECL. c–e Effects of compounds Abd-2, Abd-4, Abd-5, Abd-6, and Abd-7 on the viability of human cancer cells lines was assessed for a 2-D culture of DLD-1 (mutant KRAS^G13D) cells and HT1080 cells (mutant NRAS^Q61K). The cells were treated with a dose range from 0 μM to 20 μ and incubated for 72 h when cell viability was assessed using CellTitreGlo. […] Each experiment was repeated at least three times (a, b) and four times (c, d). Where error bars are presented, they correspond to mean values ± SD of biological repeats
A total of 450,000 DLD1 or 640,000 H358 cells were seeded per well of a six well plate. Approximately, 20 h later, the medium was removed, the cells washed twice with PBS and DMEM without FBS was added and left for 24 h. […] Cell lysates were sonicated with a Branson Sonifier and the protein concentrations determined by using the Pierce BCA protein assay kit (Thermo-Fisher). […]

[2] = test system: AKT phosphorylation (Ser473) in DLD-1 cells (KRAS^G13D); test: Biomarker phosphorylation assay, pAKT, DLD-1; type: cell-based, human; conditions: EGF 10 min
Description: as §1
A total of 450,000 DLD1 or 640,000 H358 cells were seeded per well of a six well plate. Approximately, 20 h later, the medium was removed, the cells washed twice with PBS and DMEM without FBS was added and left for 24 h. The medium was removed and 2 ml of DMEM no FBS was added with the appropriate concentration of compound (DMSO, 2, 5, 10 or 20 μM) for 3 h. Cells were stimulated with EGF (50 ng/ml) for 10 min, washed once with PBS and directly lysed in SDS-Tris buffer (1% SDS, 10 mM Tris-HCl pH 7.4) supplemented with protease inhibitors (Sigma) and phosphatase inhibitors (Thermo-Fisher). Cell lysates were sonicated with a Branson Sonifier and the protein concentrations determined by using the Pierce BCA protein assay kit (Thermo-Fisher). Furthermore, 10 μg of protein were resolved on 10 or 12.5% SDS-PAGE and subsequently transferred onto a PVDF membrane (GE). The membrane was blocked (with 10% non-fat milk (Sigma) or 10% BSA (Sigma) in TBS-0.1% Tween20) and incubated overnight with primary antibody at 4 °C. […]

T1 sequence (P01116 1-188 isoform P01116-2 G12V): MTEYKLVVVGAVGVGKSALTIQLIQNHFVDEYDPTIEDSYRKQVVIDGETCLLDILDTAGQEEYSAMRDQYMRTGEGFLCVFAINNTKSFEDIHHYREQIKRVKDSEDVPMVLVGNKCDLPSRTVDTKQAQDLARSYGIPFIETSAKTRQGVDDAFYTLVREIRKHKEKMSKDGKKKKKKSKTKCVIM

Compound	binding to KRAS^G12V-GppNHp (SPR) (KRAS^G12V-GppNHp)	inhibition of ERK1/2 phosphorylation [1]	inhibition of AKT phosphorylation ([2]; DLD-1, 20 μM, 3 h)	concentration at which inhibition of AKT phosphorylation initiates ([2]; DLD-1, starved 24 h, 3 h compound, Western)	inhibition at 10 µM ([2]; Homo sapiens, DLD-1, 10 μM, 3 h)
O=C(NCC1COc2ccccc2O1)c1ccco1 (centres unmarked) [Abd-2]	binds				
COc1nc(-c2cccc3c2OCCO3)ccc1Nc1ccc(CN(C)C)cc1 [Abd-7]		diminution of pERK levels	complete inhibition	2 µM	> 50%
